{
  "source": "patent US7160992B2",
  "about": "“Amino-modified polysaccharides and methods of generating and using same” (Yeda Research and Development Co., Ltd., priority 2003, dated 2007)",
  "key": {"TAR or RRE RNAs": {"system": "TAR or RRE RNAs", "details": "cited from earlier work"}, "TAR": {"system": "TAR", "details": "in contrast to Tat peptide (R52) or AACs; cited from earlier work"}, "CD4": {"biological_target": "T1, CD4 (Homo sapiens, UniProt P01730)", "T1 construct": "in PHA stimulated peripheral blood lymphocytes (PBL); host or cells: PHA stimulated peripheral blood lymphocytes (PBL)", "details": "PHA stimulated peripheral blood lymphocytes; cited from earlier work"}, "HIV-1 clade C": {"system": "HIV-1 clade C", "test": "Replication of HIV-1 clade C in MT2 cells, tetrazolium viability", "format": "cell-based", "details": "present throughout infection or only the first two hours; NeoR6 2–20 μM, R3G 5–40 μM", "protocol": "Infected cells were washed, seeded in 96-well plate (5×10^4 cells per well) and incubated for 4 days in the absence or presence of various drug concentrations, until syncytia were observed (>25% ctu). Cell viability was measured by tetrazolium-based colorimetric method. The results shown are mean ±standard deviation of triplicates. Circles denote the presence of AACs during the infection step and after the cells were washed; Squares denote the presence of AACs only during the first 2 hours prior to washing."}, "CCR5": {"biological_target": "T2, CCR5 (Homo sapiens, UniProt P51681)", "T2 construct": "in PHA stimulated peripheral blood lymphocytes (PBL); host or cells: PHA stimulated peripheral blood lymphocytes (PBL)", "T2 sequence (P51681 whole entry)": "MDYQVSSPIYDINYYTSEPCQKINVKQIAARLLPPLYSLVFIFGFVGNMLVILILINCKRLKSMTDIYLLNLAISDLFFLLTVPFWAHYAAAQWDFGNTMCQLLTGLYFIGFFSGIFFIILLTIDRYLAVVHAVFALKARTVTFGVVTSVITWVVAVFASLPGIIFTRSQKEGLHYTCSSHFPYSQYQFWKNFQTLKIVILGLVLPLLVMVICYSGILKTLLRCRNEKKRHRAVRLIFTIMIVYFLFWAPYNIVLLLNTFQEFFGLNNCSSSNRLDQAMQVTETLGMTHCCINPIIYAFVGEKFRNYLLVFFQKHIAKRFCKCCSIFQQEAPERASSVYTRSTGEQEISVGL", "details": "PHA stimulated peripheral blood lymphocytes; cited from earlier work"}, "HIV-1IIIB wild type": {"system": "HIV-1IIIB wild type", "test": "Inhibition of HIV-1IIIB wild type in MT2 or cMAGI cells", "format": "cell-based", "text": "(§1) The cMAGI assay is based on the ability of HIV-1 TAT to transactivate the expression of an integrated β-galactosidase reporter gene driven by the HIV-LTR [Chackerian, B. et al., 1997. J Virol. 71: 3932–3939; Collins, K. B. et al., 2000. Nat. Med. 6: 475–479]. The β-galactosidase reporter has been modified to remain localized in the nucleus where it can be detected with the X-gal substrate as an intense nuclear stain within a few days of infection. The X-gal substrate used was 5-bromo-4-chloro-3-indoyl-beta-D-galactopyranoside. HIV1IIIB was propagated by subculture in MT2 as described previously [Litovchick (2001) Supra]. Aliquots of cell-free culture supernatants were used as viral inoculum. […] The cytopathic effects of the viral infection of MT2 cells were analyzed by microscopic assessment of syncytium formation. These latter data were obtained by analysis of duplicate samples by two independent observers. HIV-1 infection of cMAGI cells was determined by counting the number of HIV-1 infected cells (stained blue)."}, "[1]": {"system": "NeoR6 resistant HIV-1 isolates", "test": "Inhibition of NeoR6 resistant HIV-1 isolates in MT2 or cMAGI cells", "format": "cell-based", "text": "as §1\nCulture fluids were replaced […] weekly with fresh medium containing an appropriate drug concentration. […] From the final cycle of each experiment the resistant virus was propagated as described above."}, "CXCR4": {"biological_target": "T3, CXCR4 (Homo sapiens, UniProt P61073)", "T3 construct": "endogenous in cells; host or cells: PM1 cells and PBMC", "T3 sequence (P61073 whole entry)": "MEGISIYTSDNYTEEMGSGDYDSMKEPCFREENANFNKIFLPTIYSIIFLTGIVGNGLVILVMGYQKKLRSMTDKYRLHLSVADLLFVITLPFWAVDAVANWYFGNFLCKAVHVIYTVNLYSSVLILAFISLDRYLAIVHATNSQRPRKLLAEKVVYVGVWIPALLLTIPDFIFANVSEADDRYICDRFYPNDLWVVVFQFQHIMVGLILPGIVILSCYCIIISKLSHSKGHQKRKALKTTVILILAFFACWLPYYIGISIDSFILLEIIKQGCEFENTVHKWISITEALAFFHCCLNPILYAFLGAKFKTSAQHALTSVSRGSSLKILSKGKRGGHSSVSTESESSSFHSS", "test": "Inhibition of anti-CXCR4 mAb 12G5 binding to cells, flow cytometry", "format": "cell-based", "protocol": "FIGS. 11a–d are graphs depicting the binding of AACs to CXCR4 in the presence of anti CXCR4 antibody (12G5). PM1 cells were incubated with PE-conjugated isotype control mAb, PE-anti CXCR4 conjugated mAb (12G5) alone, or in the presence of the indicated AACs for 30 min at 4° C. The cells were then washed twice with PBS and analyzed by flow cytometry. The MFI values are shown in parenthesis.\nInteraction of AACs with CXCR4 was determined by flow cytometry (FACScan, Becton Dickinson) as described recently (Litovchick et al., 2001, supra). Briefly, 0.5×10^6 cells were washed in ice-cold PBS containing 0.1% sodium azide (wash buffer) and incubated at 4° C. with anti-CXCR4 mAb, 12G5 (PharMingen, San Diego, Calif.) conjugated to phycoerithrine (PE), in the absence or presence of different concentrations of the AACs. After 30 min of incubation, the cells were washed with ice-cold wash buffer and fixed in PBS containing 1% paraformaldehyde. Non-specific fluorescence was assessed by using isotype-matched control. For each sample 10,000 events were acquired. Data were analyzed and processed using CellQuest™ software (Becton Dickinson)."}, "[2]": {"system": "lymphocytes, PBMC and neurons", "details": "cited from earlier work"}, "HIV-1 isolates [3]": {"system": "HIV-1 isolates", "test": "Inhibition of HIV-1 infection (cMAGI reporter cells, MT2 syncytium formation)", "format": "cell-based", "details": "up to 100 μM", "protocol": "Aliquots of cell-free culture supernatants were used as viral inoculum. […] Cytotoxicity determinations were carried out in MT2 and H9 cells by trypan blue exclusion assay.\nViral inhibition was determined by incubating cMAGI HIV-1 reporter cells with 0.2–0.5 multiplicity of infection of HIV-1IIIB for 4 days at 37° C. in the presence or absence of various concentration of AACs, prior to counting the number of HIV-1 infected cells (stained blue). The cytopathic effects of the viral infection of MT2 cells were also analyzed by microscopic assessment of syncytium formation. These latter data were obtained by analysis of duplicate samples by two independent observers."}, "RRE IIB [4]": {"system": "RRE IIB", "test": "Fluorescence anisotropy of aminoglycoside binding to RRE IIB, fluorescein-Rev34-50 tracer (literature)", "set-up": "species or system HIV-1"}, "RRE IIB [5]": {"biological_target": "RRE IIB", "details": "fluorescein-Rev34-50 as fluorescent tracer; read-out: KD of aminoglycoside binding to RRE IIB; cited from earlier work"}, "HIV-1 isolates [6]": {"system": "HIV-1 isolates", "details": "Cabrera et al., 2002; cited from earlier work"}, "[7]": {"details": "HIV-1IIIB wt, mean and standard deviation of three separate experiments, read-out: EC50, Wild-type"}, "[8]": {"details": "NeoR6 resistant isolates after 25 passages, mean and standard deviation of three separate experiments, read-out: EC50, NeoR6RES"}},
  "note": "Read-outs that look alike come from different tables or passages of the source.",
  "data": [
    {"compound": "N=C(N)NCCCC(=O)NCC1OC(OC2C(NC(=O)CCCNC(=N)N)CC(NC(=O)CCCNC(=N)N)C(OC3OC(CO)C(O)C(NC(=O)CCCNC(=N)N)C3O)C2O)C(O)C(O)C1O", "note": "(centres unmarked) [GB4K, kanamycine A conjugated to four γ-guadinno butiric acid]", "values": [
      {"measurement": "affinity to TAR or RRE RNAs (in words)", "setting": "TAR or RRE RNAs", "value": "very low affinity"},
      {"measurement": "protection of the bulge region of TAR from RNase A cleavage", "setting": "TAR", "value": "cannot protect the bulge region of TAR from RNase A cleavage"}
    ]},
    {"compound": "CNC(C)C1CCC(NC(=O)C(N)CCCNC(=N)N)C(OC2C(NC(=O)C(N)CCCNC(=N)N)CC(NC(=O)C(N)CCCNC(=N)N)C(OC3OCC(C)(O)C(NC)C3O)C2O)O1", "note": "(centres unmarked) [R3G, tri-arginine gentamycin C1 conjugate, reference compound]", "values": [
      {"measurement": "inhibition of binding of anti CD4 antibody (Leu 3a)", "setting": "CD4", "value": "neither R3G nor R4K or NeoR6 inhibit the binding"},
      {"measurement": "inhibition of viral proliferation (in words)", "setting": "HIV-1 clade C", "value": "could inhibit viral proliferation"},
      {"measurement": "inhibition of binding of 2D7, a mAb directed to CCR5", "setting": "CCR5", "value": "neither R3G nor R4K or NeoR6 inhibit the binding"},
      {"measurement": "EC50", "setting": "HIV-1IIIB wild type; [7]", "value": "4.1 ± 2.4", "unit": "µM"},
      {"measurement": "EC50", "setting": "[1]; [8]", "value": "21 ± 8.8", "unit": "µM"},
      {"measurement": "times more resistant than the wild type virus", "setting": "[1]; NeoR6 resistant isolates, following 25 passages", "value": "~5"},
      {"measurement": "reduction of 12G5 mAb binding to the cells", "setting": "CXCR4; 10 μM AAC, PM1 cells, 30 min at 4° C.", "value": 84, "unit": "%"},
      {"measurement": "median fluorescence intensity (MFI) of PE-12G5 in presence of AAC", "setting": "CXCR4; 10 μM AAC, mAb alone 451, isotype control 30", "value": 89},
      {"measurement": "accumulation in cells", "setting": "[2]", "value": "accumulate in different cell types"}
    ]},
    {"compound": "NC[C@@H]1O[C@H](O[C@H]2[C@@H](O)[C@H](O[C@@H]3[C@@H](O)[C@H](N)C[C@H](N)[C@H]3O[C@H]3O[C@H](CN)[C@@H](O)[C@H](O)[C@H]3N)O[C@@H]2CO)[C@H](N)[C@@H](O)[C@@H]1O", "note": "[neomycin, neomycin B]", "values": [
      {"measurement": "antiviral activity (in words)", "setting": "HIV-1 isolates [3]", "value": "did not reveal antiviral activity"},
      {"measurement": "times weaker than NeoR1 binding to RRE IIB", "setting": "RRE IIB [4]; comparator NeoR1", "value": 6},
      {"measurement": "times weaker than NeoR2 binding to RRE IIB", "setting": "RRE IIB [4]; comparator NeoR2", "value": 7},
      {"measurement": "times weaker than NeoR6 binding to RRE IIB", "setting": "RRE IIB [4]; comparator NeoR6", "value": "~550"},
      {"measurement": "Kd", "setting": "RRE IIB [5]", "value": 1.18, "unit": "µM"},
      {"measurement": "inhibition of 12G5 mAb binding to CXCR4 (in words)", "setting": "CXCR4; 20 μM aminoglycoside antibiotic", "value": "did not inhibit"}
    ]},
    {"compound": "SDF-1α", "values": [
      {"measurement": "anti-HIV-1 EC50, fold lower than that of NeoR6", "setting": "HIV-1 isolates [6]", "value": "~70", "unit": "fold"},
      {"measurement": "EC50", "setting": "HIV-1IIIB wild type; [7]", "value": "0.2 ± 0.05", "unit": "µM"},
      {"measurement": "EC50", "setting": "HIV-1IIIB wild type; wt HIV-1 isolate, text of b338", "value": 1, "unit": "µg/mL"},
      {"measurement": "EC50", "setting": "[1]; NeoR6 resistant HIV-1 isolates, text of b338", "value": 1, "unit": "µg/mL"},
      {"measurement": "EC50", "setting": "[1]; [8]", "value": "0.18 ± 0.07", "unit": "µM"},
      {"measurement": "inhibition of PE-12G5 binding to PM1 cells by SDF-1α", "setting": "CXCR4; 62.5 and 125 nM SDF-1α, control", "value": "inhibited significantly"}
    ]}
  ]
}
